Test results: patent US10519111B2, “UV absorbing compounds, compositions comprising same and uses thereof” (CORAL SUNSCREEN PTY LTD, priority 2013, dated 2019)
Several values for one entry are separate records, joined by “and”; a condition that tells them apart may be missing. Equal values may be shown once.

Assay: UV absorption properties (λmax, molar extinction coefficient ε, efficiency E 1%, 1 cm)
Format: physicochemical
Details: for ε (molar extinction coefficient): values in order of the λmax values

Row | SMILES | UV λmax | ε (molar extinction coefficient) [M⁻¹ cm⁻¹] | ε value (unit inferred) [M⁻¹ cm⁻¹] | ε value (unit not given)
1 | CC1(C)CCN(C(C)(C)C)C=C1C(=O)c1ccncc1 [Compound 169, (1-(tert-butyl)-4,4-dimethyl-1,4,5,6-tetrahydropyridin-3-yl)(pyridin-4-yl)methanone] | 316 nm | 23556 |  | 
2 | CC1(C)CCN(C(C)(C)C)C=C1C(=O)CC(=O)c1ccccc1 [Compound 170, 1-(1-(tert-butyl)-4,4-dimethyl-1,4,5,6-tetrahydropyridin-3-yl)-3-phenylpropane-1,3-dione] | 396 nm and 309 nm |  |  | 
3 | COc1ccc(N2C=C(C(=O)C3CCCC3=O)C(C)(C)CC2)cc1 (stereo not shown) [Compound 171, 2-(1-(4-methoxyphenyl)-4,4-dimethyl-1,4,5,6-tetrahydropyridine-3-carbonyl)cyclopentanone] | 332 nm | 30675 |  | 
4 | Cc1ccc(N2C=C(C(=O)CCCCCCCCC(=O)C3=CN(c4ccc(C)cc4)CCC3(C)C)C(C)(C)CC2)cc1 [Compound 172, 1,10-bis(4,4-dimethyl-1-(p-tolyl)-1,4,5,6-tetrahydropyridin-3-yl)decane-1,10-dione] | 328 nm | 52737 | > 52000 | 
5 | COc1ccc(N2C=C(C(=O)COc3ccccc3)C(C)(C)CC2)cc1 [Compound 173, 1-(1-(4-methoxyphenyl)-4,4-dimethyl-1,4,5,6-tetrahydropyridine-3-yl)-2-phenoxyethanone] | 339 nm | 26633 |  | 
6 | COc1ccc(N2C=C(C(=O)Cc3ccccc3)C(C)(C)CC2)cc1 [Compound 174, 1-(1-(4-methoxyphenyl)-4,4-dimethyl-1,4,5,6-tetrahydropyridin-3-yl)-2-phenylethanone] | 334 nm | 33786 |  | 
7 | CCCCCCCC(=O)C1=CN(c2ccc(N(C)C)cc2)CCC1(C)C [Compound 175, 1-(1-(4-(dimethylamino)phenyl)-4,4-dimethyl-1,4,5,6-tetrahydropyridin-3-yl)octan-1-one] | 338 nm | 28040 |  | 
8 | CCC(=O)C1=CN(c2ccc(C)cc2)CCC1(C)C [Compound 176, 1-(4,4-dimethyl-1-(p-tolyl)-1,4,5,6-tetrahydropyridin-3-yl)propan-1-one] | 327 nm | 34608 |  | 
9 | CCC(=O)C1=CN(c2ccc(C(C)(C)C)cc2)CCC1(C)C [Compound 177, 1-(1-(4-(tert-butyl)phenyl)-4,4-dimethyl-1,4,5,6-tetrahydropyridin-3-yl)propan-1-one] | 329 nm | 31955 |  | 
10 | CCC(=O)C1=CN(c2cccc3ccccc23)CCC1(C)C [Compound 178, 1-(4,4-dimethyl-1-(naphthalen-1-yl)-1,4,5,6-tetrahydropyridin-3-yl)propan-1-one] | 321 nm | 23247 |  | 
11 | CC1(C)CCN(C(C)(C)C)C=C1C(=O)Nc1ccccc1 [Compound 179, 1-(tert-butyl)-4,4-dimethyl-N-phenyl-1,4,5,6-tetrahydropyridine-3-carboxamide] | 308 nm | 34834 | 35000 | 
12 | CN(C(=O)C1=CN(C(C)(C)C)CCC1(C)C)c1ccccc1 [Compound 180, 1-(tert-butyl)-N,4,4-trimethyl-N-phenyl-1,4,5,6-tetrahydropyridine-3-carboxamide] | 312 nm | 15174 |  | 
13 | CC1(C)CCN(C(C)(C)C)C=C1C(=O)NCCCCCCNC(=O)C1=CN(C(C)(C)C)CCC1(C)C [Compound 181, N,N′-(hexane-1,6-diyl)bis(1-(tert-butyl)-4,4-dimethyl-1,4,5,6-tetrahydropyridine-3-carboxamide)] | 289 nm | 31072 |  | 
14 | CC1(C)CCN(C(C)(C)C)C=C1C(=S)Nc1ccccc1 [Compound 182, 1-(tert-butyl)-4,4-dimethyl-N-phenyl-1,4,5,6-tetrahydropyridine-3-carbothioamide] | 363 nm | 20881 |  | 
15 | CCCCNC(=O)C1=CN(C(C)(C)C)CCC1(C)C [Compound 183, 1-(tert-butyl)-N-butyl-4,4-dimethyl-1,4,5,6-tetrahydropyridine-3-carboxamide] | 288 nm | 22531 |  | 
16 | Cc1ccc(NC(=O)C2=CN(C(C)(C)C)CCC2(C)C)cc1NC(=O)C1=CN(C(C)(C)C)CCC1(C)C [Compound 184, N,N′-(4-methyl-1,3-phenylene)bis(1-(tert-butyl)-4,4-dimethyl-1,4,5,6-tetrahydropyridine-3-carboxamide)] | 308 nm |  |  | 

Row | SMILES | UV λmax | ε (molar extinction coefficient) [M⁻¹ cm⁻¹] | ε value (unit inferred) [M⁻¹ cm⁻¹] | ε value (unit not given)
17 | CC1(C)CCN(C(C)(C)C)C=C1C(=O)Nc1ccc(Cc2ccc(NC(=O)C3=CN(C(C)(C)C)CCC3(C)C)cc2)cc1 [Compound 185, N,N′-(methylenebis(4,1-phenylene))bis(1-(tert-butyl)-4,4-dimethyl-1,4,5,6-tetrahydropyridine-3-carboxamide)] | 310 nm | 64589 |  | 
18 | Cc1ccc(S(=O)(=O)NC(=O)C2=CN(C(C)(C)C)CCC2(C)C)cc1 [Compound 186, 1-(tert-butyl)-4,4-dimethyl-N-tosyl-1,4,5,6-tetrahydropyridine-3-carboxamide] | 304 nm | 34588 |  | 
19 | CC1(C)CCN(C(C)(C)C)C=C1C(=O)Nc1ccc(NC(=O)C2=CN(C(C)(C)C)CCC2(C)C)cc1 [Compound 187, N,N′-(1,4-phenylene)bis(1-(tert-butyl)-4,4-dimethyl-1,4,5,6-tetrahydropyridine-3-carboxamide)] | 322 nm | 71962 |  | 
20 | CC1(C)CCN(C(C)(C)C)C=C1C(=O)Nc1cccc(NC(=O)C2=CN(C(C)(C)C)CCC2(C)C)c1 [Compound 188, N,N′-(1,3-phenylene)bis(1-(tert-butyl)-4,4-dimethyl-1,4,5,6-tetrahydropyridine-3-carboxamide)] | 313 nm | 55779 |  | 
21 | Cc1ccc(N2C=C(C(=O)Nc3ccc(C)c(NC(=O)C4=CN(C(C)(C)C)CCC4(C)C)c3)C(C)(C)CC2)cc1 [Compound 190, 1-(tert-butyl)-N-(5-(4,4-dimethyl-1-(p-tolyl)-1,4,5,6-tetrahydropyridine-3-carboxamido)-2-methylphenyl)-4,4-dimethyl-1,4,5,6-tetrahydropyridine-3-carboxamide] | 314 nm | 51743 |  | 
22 | CC1(C)CCN(c2ccc(C(C)(C)C)cc2)C=C1C(=O)Nc1ccc(NC(=O)C2=CN(c3ccc(C(C)(C)C)cc3)CCC2(C)C)cc1 [Compound 191, N,N′-(1,4-phenylene)bis(1-(4-(tert-butyl)phenyl)-4,4-dimethyl-1,4,5,6-tetrahydropyridine-3-carboxamide)] | 331 nm | 68095 |  | 
23 | Cc1ccc(N2C=C(C(=O)Nc3ccccc3)C(C)(C)CC2)cc1 [Compound 192, 4,4-dimethyl-N-phenyl-1-(p-tolyl)-1,4,5,6-tetrahydropyridine-3-carboxamide] | 323 nm | 33948 |  | 
24 | CC1(C)CCN(c2ccc(C(C)(C)C)cc2)C=C1C(=O)Nc1ccccc1 [Compound 193, 1-(4-(tert-butyl)phenyl)-4,4-dimethyl-N-phenyl-1,4,5,6-tetrahydropyridine-3-carboxamide] | 324 nm | 35759 |  | 
25 | CC1(C)CCN(c2ccc(C(C)(C)C)cc2)C=C1C(=O)C(F)(F)F [Compound 194, 1-(1-(4-(tert-butyl)phenyl)-4,4-dimethyl-1,4,5,6-tetrahydropyridin-3-yl)-2,2,2-trifluoroethanone] | 337 nm | 42723 |  | 
26 | COc1ccc(N2C=C(C(=O)C(F)(F)F)C(C)(C)CC2)cc1 [Compound 195, 2,2,2-trifluoro-1-(1-(4-methoxyphenyl)-4,4-dimethyl-1,4,5,6-tetrahydropyridin-3-yl)ethanone] | 339 nm | 24235 |  | 
27 | CN(C)c1ccc(N2C=C(C(=O)C(F)(F)F)C(C)(C)CC2)cc1 [Compound 196, 1-(1-(4-(dimethylamino)phenyl)-4,4-dimethyl-1,4,5,6-tetrahydropyridin-3-yl)-2,2,2-trifluoroethanone] | 354 nm | 32744 |  | 
28 | Cc1ccc(N2C=C(C(=O)C(F)(F)F)C(C)(C)CC2)cc1 [Compound 197, 1-(4,4-dimethyl-1-(p-tolyl)-1,4,5,6-tetrahydropyridin-3-yl)-2,2,2-trifluoroethanone] | 337 nm | 43513 |  | 
29 | CC1(C)CCN(c2cccc3ccccc23)C=C1C(=O)C(F)(F)F [Compound 198, 1-(4,4-dimethyl-1-(naphthalen-1-yl)-1,4,5,6-tetrahydropyridine-3-yl)-2,2,2-trifluoroethanone] | 325 nm |  |  | 
30 | Cc1ccc(N2C=CC(C)(C)C(C(=O)C(F)(F)F)=C2)cc1 [Compound 199, 1-(4,4-dimethyl-1-(p-tolyl)-1,4-dihydropyridin-3-yl)-2,2,2-trifluoroethanone] | 388 nm | 14911 |  | 
31 | Cc1nn(C)c(N2C=CC(C)(C)C=C2)c1C(=O)C(F)(F)F [Compound 200, 1-(5-(4,4-dimethylpyridin-1(4H)-yl)-1,3-dimethyl-1 H-pyrazol-4-yl)-2,2,2-trifluoroethanone] | 253 nm | 10016 |  | 
32 | CC1(C)CCN(c2ccc(C(C)(C)C)cc2)C=C1C(=O)C(c1ccccc1)c1ccccc1 [Compound 204, 1-(1-(4-(tert-butyl)phenyl)-4,4-dimethyl-1,4,5,6-tetrahydropyridine-3-yl)-2,2-diphenylethanone] | 337 nm | 17793 |  | approximately 18000
